Reference: US20060193786A1, “Pharmaceutical composition for intranasal administration containing a CGRP antagonist” (Boehringer Ingelheim Pharma GmbH & Co. KG, priority 2002, published 2006)

Experiment: Stability testing of more highly concentrated nasal spray solutions
Assay type: physicochemical
Details: for content of active substance (A): as free base
Procedure: Stability testing of more highly concentrated nasal spray solutions according to the invention:
The total decomposition which is high in some circumstances (particularly at 40° C.) is based on hydrolysis.
The content of active substance (A) given in Table 1 refers in each case to the free base originally weighed out.

[1] = active substance concentration 15, 3-month value, 25° C.
[2] = active substance concentration 15, 3-month value, 40° C.
[3] = active substance concentration 15, 6-month value, 25° C.
[4] = active substance concentration 15, 6-month value, 40° C.
[5] = active substance concentration 15, 6-week value, 25° C.
[6] = active substance concentration 15, 6-week value, 40° C.
[7] = active substance concentration 15, initial value
[8] = active substance concentration 20%, 3-month value, 25° C.
[9] = active substance concentration 20%, 3-month value, 40° C.
[10] = active substance concentration 20%, 6-month value, 25° C.
[11] = active substance concentration 20%, 6-month value, 40° C.
[12] = active substance concentration 20%, 6-week value, 25° C.
[13] = active substance concentration 20%, 6-week value, 40° C.
[14] = active substance concentration 20%, initial value
[15] = active substance concentration 30%, 3-month value, 25° C.
[16] = active substance concentration 30%, 3-month value, 40° C.
[17] = active substance concentration 30%, 6-month value, 25° C.
[18] = active substance concentration 30%, 6-month value, 40° C.
[19] = active substance concentration 30%, 6-week value, 25° C.
[20] = active substance concentration 30%, 6-week value, 40° C.
[21] = active substance concentration 30%, initial value

For `NCCCC[C@H](NC(=O)[C@@H](Cc1cc(Br)c(O)c(Br)c1)NC(=O)N1CCC(N2Cc3ccccc3NC2=O)CC1)C(=O)N1CCN(c2ccncc2)CC1` [(A), 1-[N^2-[3,5-dibromo-N-[[4-(3,4-dihydro-2(1H)-oxoquinazolin-3-yl)-1-piperidinyl]carbonyl]-D-tyrosyl]-L-lysyl]-4-(4-pyridinyl)-piperazine], the decomposition by oxidation [1] was 0.64%, the overall decomposition [1] was 1.69% and the “content of active substance (A)” value [1] was 147.7 mg/mL. For the same compound, the decomposition by oxidation [2] was 0.55%, the overall decomposition [2] was 8.22% and the “content of active substance (A)” value [2] was 139.4 mg/mL. For the same compound, the decomposition by oxidation [3] was 0.82%, the overall decomposition [3] was 2.07% and the “content of active substance (A)” value [3] was 147.7 mg/mL. For the same compound, the decomposition by oxidation [4] was 0.78%, the overall decomposition [4] was 15.33% and the “content of active substance (A)” value [4] was 131.7 mg/mL. The decomposition by oxidation [5] was 0.72%, the overall decomposition [5] was 1.60% and the “content of active substance (A)” value [5] was 148.1 mg/mL. For the same compound, the decomposition by oxidation [6] was 0.52%, the overall decomposition [6] was 4.46% and the “content of active substance (A)” value [6] was 142.3 mg/mL. The decomposition by oxidation [7] was 0.59%, the overall decomposition [7] was 1.23% and the “content of active substance (A)” value [7] was 148.6 mg/mL. For the same compound, the decomposition by oxidation [8] was 0.53%, the overall decomposition [8] was 1.50% and the “content of active substance (A)” value [8] was 202.8 mg/mL. The decomposition by oxidation [9] was 0.47%, the overall decomposition [9] was 8.23% and the “content of active substance (A)” value [9] was 191.4 mg/mL. For the same compound, the decomposition by oxidation [10] was 0.77%, the overall decomposition [10] was 1.99% and the content of active substance (A) [10] was 202 mg/mL. The decomposition by oxidation [11] was 0.74%, the overall decomposition [11] was 14.61% and the “content of active substance (A)” value [11] was 182.8 mg/mL. For the same compound, the decomposition by oxidation [12] was 0.54%, the overall decomposition [12] was 1.09% and the “content of active substance (A)” value [12] was 198.7 mg/mL. The decomposition by oxidation [13] was 0.55%, the overall decomposition [13] was 3.97% and the “content of active substance (A)” value [13] was 192.1 mg/mL. The decomposition by oxidation [14] was 0.56%, the overall decomposition [14] was 1.27% and the “content of active substance (A)” value [14] was 197.9 mg/mL. The decomposition by oxidation [15] was 0.60%, the overall decomposition [15] was 1.48% and the “content of active substance (A)” value [15] was 270 mg/mL. The decomposition by oxidation [16] was 0.59%, the overall decomposition [16] was 7.81% and the “content of active substance (A)” value [16] was 260 mg/mL. The decomposition by oxidation [17] was 0.91%, the overall decomposition [17] was 2.04% and the “content of active substance (A)” value [17] was 273 mg/mL. For the same compound, the decomposition by oxidation [18] was 0.84%, the overall decomposition [18] was 13.36% and the “content of active substance (A)” value [18] was 246 mg/mL. The decomposition by oxidation [19] was 0.62%, the overall decomposition [19] was 1.19% and the “content of active substance (A)” value [19] was 264 mg/mL. The decomposition by oxidation [20] was 0.58%, the overall decomposition [20] was 3.95% and the “content of active substance (A)” value [20] was 260 mg/mL. The decomposition by oxidation [21] was 0.56%, the overall decomposition [21] was 1.20% and the “content of active substance (A)” value [21] was 269 mg/mL. The oxidative decomposition (hydrochloride in aqueous solution, over a long period) was “virtually unchanged or increases only slightly”.
